Key:
Tie2(R849W)(h) = Tie2(R849W)(h) (Homo sapiens (Human), UniProt Q02763, R849W); test: KinaseProfiler kinase panel; type: biochemical
PrKX(h) = PrKX(h) (Homo sapiens (Human), UniProt P51817); test: KinaseProfiler kinase panel; type: biochemical
p70S6K(h) = p70S6K(h) (Homo sapiens (Human), UniProt P23443); test: KinaseProfiler kinase panel; type: biochemical
PAK2(h) = PAK2(h) (Homo sapiens (Human), UniProt Q13177); test: KinaseProfiler kinase panel; type: biochemical
PRAK(h) = PRAK(h) (Homo sapiens (Human), UniProt Q8IW41); test: KinaseProfiler kinase panel; type: biochemical
WNK2(h) = WNK2(h) (Homo sapiens (Human), UniProt Q9Y3S1); test: KinaseProfiler kinase panel; type: biochemical
ZAP-70(h) = ZAP-70(h) (Homo sapiens (Human), UniProt P43403); test: KinaseProfiler kinase panel; type: biochemical
PKCζ(h) = PKCζ(h) (Homo sapiens (Human), UniProt Q05513); test: KinaseProfiler kinase panel; type: biochemical
EGFR(L858R)(h) = EGFR(L858R)(h) (Homo sapiens (Human), UniProt P00533, L858R); test: KinaseProfiler kinase panel; type: biochemical
ASK1(h) = ASK1(h) (Homo sapiens (Human), UniProt Q99683); test: KinaseProfiler kinase panel; type: biochemical
PKD2(h) = PKD2(h) (Homo sapiens (Human), UniProt Q9BZL6); test: KinaseProfiler kinase panel; type: biochemical
Chain of PKD2(h) (Q9BZL6 whole entry): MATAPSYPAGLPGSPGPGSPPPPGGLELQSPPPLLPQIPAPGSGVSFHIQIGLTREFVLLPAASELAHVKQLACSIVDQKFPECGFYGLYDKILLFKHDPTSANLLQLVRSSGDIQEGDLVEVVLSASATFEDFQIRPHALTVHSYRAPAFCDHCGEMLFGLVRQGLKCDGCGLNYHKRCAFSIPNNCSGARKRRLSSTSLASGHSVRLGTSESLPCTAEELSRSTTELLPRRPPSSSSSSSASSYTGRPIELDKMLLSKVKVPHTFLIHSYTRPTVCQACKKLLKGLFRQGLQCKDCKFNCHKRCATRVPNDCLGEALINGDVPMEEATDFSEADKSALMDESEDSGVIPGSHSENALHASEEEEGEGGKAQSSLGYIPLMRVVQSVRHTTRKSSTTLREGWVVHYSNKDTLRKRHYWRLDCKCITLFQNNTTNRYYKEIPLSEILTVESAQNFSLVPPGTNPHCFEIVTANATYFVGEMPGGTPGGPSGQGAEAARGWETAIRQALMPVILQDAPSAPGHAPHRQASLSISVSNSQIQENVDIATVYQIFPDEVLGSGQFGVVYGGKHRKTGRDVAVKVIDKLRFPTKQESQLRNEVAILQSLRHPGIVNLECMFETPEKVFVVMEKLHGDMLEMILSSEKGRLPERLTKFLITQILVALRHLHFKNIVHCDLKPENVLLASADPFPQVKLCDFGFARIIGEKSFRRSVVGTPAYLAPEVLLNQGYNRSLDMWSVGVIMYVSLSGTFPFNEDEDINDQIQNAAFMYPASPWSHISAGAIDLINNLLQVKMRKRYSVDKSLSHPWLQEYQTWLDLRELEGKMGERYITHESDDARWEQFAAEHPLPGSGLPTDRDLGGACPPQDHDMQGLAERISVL

EphA5(h) = EphA5(h) (Homo sapiens (Human), UniProt P54756); test: KinaseProfiler kinase panel; type: biochemical
Lyn(h) = Lyn(h) (Homo sapiens (Human), UniProt P07948); test: KinaseProfiler kinase panel; type: biochemical
ROCK-I(h) = ROCK-I(h) (Homo sapiens (Human), UniProt Q13464); test: KinaseProfiler kinase panel; type: biochemical
Chain of ROCK-I(h) (Q13464 whole entry): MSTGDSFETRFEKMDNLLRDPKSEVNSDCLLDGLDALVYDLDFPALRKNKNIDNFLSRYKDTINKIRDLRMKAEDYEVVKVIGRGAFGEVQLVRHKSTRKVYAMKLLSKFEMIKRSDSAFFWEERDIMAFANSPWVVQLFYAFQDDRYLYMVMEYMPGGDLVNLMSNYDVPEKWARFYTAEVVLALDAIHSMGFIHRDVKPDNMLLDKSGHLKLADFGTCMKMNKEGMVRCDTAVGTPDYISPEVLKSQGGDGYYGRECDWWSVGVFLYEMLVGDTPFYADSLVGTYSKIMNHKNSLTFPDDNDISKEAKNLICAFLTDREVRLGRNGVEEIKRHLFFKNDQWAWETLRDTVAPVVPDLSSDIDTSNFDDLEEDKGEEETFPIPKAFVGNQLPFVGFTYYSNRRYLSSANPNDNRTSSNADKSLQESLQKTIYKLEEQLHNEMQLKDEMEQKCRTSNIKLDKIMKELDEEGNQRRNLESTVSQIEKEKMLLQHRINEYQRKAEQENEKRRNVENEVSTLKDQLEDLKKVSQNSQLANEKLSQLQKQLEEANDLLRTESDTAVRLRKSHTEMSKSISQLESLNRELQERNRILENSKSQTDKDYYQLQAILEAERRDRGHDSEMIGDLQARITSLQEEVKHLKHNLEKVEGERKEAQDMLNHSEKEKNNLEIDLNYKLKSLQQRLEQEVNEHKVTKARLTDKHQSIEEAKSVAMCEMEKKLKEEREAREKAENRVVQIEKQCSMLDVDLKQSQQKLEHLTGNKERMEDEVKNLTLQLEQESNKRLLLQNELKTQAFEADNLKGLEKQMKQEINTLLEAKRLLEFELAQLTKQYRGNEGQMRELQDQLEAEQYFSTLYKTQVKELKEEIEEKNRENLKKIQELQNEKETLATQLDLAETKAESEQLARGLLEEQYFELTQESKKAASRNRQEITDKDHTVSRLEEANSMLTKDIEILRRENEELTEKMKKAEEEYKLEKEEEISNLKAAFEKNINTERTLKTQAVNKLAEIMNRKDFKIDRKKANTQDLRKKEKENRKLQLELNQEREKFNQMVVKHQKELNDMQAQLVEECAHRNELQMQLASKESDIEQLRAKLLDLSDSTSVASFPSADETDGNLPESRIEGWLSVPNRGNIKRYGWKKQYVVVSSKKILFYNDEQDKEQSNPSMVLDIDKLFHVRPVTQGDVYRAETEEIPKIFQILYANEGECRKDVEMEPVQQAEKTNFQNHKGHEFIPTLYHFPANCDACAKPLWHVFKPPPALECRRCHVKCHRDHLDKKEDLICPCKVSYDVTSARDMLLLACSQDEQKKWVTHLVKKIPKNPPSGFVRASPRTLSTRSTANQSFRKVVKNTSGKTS

PKCβII(h) = PKCβII(h) (Homo sapiens (Human), UniProt P05771); test: KinaseProfiler kinase panel; type: biochemical
MINK(h) = MINK(h) (Homo sapiens (Human), UniProt Q8N4C8); test: KinaseProfiler kinase panel; type: biochemical
c-RAF(h) = c-RAF(h) (Homo sapiens (Human), UniProt P04049, Y340D/Y341D); test: KinaseProfiler kinase panel; type: biochemical
RIPK2(h) = RIPK2(h) (Homo sapiens (Human), UniProt O43353); test: KinaseProfiler kinase panel; type: biochemical
Chain of RIPK2(h) (O43353 whole entry): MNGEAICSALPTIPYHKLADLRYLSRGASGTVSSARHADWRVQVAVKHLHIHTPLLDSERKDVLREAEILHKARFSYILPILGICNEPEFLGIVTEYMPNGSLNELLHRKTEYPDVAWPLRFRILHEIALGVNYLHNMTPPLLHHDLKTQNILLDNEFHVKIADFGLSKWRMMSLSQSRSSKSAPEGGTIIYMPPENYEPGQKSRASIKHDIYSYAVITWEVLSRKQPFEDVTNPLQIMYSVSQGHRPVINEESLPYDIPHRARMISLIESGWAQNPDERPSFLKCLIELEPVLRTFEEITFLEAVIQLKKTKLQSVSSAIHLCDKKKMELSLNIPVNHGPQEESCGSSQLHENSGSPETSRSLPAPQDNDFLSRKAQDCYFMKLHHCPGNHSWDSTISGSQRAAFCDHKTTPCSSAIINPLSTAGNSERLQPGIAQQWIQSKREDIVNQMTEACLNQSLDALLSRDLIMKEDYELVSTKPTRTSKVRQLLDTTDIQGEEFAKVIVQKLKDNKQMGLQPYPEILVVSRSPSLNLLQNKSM

HIPK2(h) = HIPK2(h) (Homo sapiens (Human), UniProt Q9H2X6); test: KinaseProfiler kinase panel; type: biochemical
DCAMKL2(h) = DCAMKL2(h) (Homo sapiens (Human), UniProt Q8N568); test: KinaseProfiler kinase panel; type: biochemical
Chain of DCAMKL2(h) (Q8N568 whole entry, looked up): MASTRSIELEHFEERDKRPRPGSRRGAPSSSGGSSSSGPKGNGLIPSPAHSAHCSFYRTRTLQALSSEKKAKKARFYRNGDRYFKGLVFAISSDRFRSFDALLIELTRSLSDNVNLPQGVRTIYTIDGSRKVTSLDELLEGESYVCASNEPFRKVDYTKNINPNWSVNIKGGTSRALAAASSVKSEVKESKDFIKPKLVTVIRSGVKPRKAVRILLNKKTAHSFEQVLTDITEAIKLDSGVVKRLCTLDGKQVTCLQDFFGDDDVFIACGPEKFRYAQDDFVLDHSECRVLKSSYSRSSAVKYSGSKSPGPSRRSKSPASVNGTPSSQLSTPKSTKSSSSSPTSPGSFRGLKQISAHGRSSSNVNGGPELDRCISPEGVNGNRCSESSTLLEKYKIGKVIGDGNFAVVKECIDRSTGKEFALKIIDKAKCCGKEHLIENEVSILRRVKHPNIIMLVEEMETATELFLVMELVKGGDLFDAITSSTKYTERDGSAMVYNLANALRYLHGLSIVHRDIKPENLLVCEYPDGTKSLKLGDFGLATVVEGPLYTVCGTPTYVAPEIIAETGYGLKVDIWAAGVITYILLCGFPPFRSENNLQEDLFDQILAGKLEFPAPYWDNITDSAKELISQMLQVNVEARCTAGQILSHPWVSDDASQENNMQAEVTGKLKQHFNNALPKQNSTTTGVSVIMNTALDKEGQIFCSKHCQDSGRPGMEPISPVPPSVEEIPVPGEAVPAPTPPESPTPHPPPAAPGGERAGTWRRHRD

ErbB4(h) = ErbB4(h) (Homo sapiens (Human), UniProt Q15303); test: KinaseProfiler kinase panel; type: biochemical
MKK4(m) = MKK4(m) (Mus musculus (Mouse), UniProt P47809); test: KinaseProfiler kinase panel; type: biochemical
TAO1(h) = TAO1(h) (Homo sapiens (Human), UniProt Q7L7X3); test: KinaseProfiler kinase panel; type: biochemical
Plk1(h) = Plk1(h) (Homo sapiens (Human), UniProt P53350); test: KinaseProfiler kinase panel; type: biochemical
MST3(h) = MST3(h) (Homo sapiens (Human), UniProt Q9Y6E0); test: KinaseProfiler kinase panel; type: biochemical
Met(D1246H)(h) = Met(D1246H)(h) (Homo sapiens (Human), UniProt P08581, D1246H); test: KinaseProfiler kinase panel; type: biochemical
PKBα(h) = PKBα(h) (Homo sapiens (Human), UniProt P31749); test: KinaseProfiler kinase panel; type: biochemical
Chain of PKBα(h) (P31749 whole entry): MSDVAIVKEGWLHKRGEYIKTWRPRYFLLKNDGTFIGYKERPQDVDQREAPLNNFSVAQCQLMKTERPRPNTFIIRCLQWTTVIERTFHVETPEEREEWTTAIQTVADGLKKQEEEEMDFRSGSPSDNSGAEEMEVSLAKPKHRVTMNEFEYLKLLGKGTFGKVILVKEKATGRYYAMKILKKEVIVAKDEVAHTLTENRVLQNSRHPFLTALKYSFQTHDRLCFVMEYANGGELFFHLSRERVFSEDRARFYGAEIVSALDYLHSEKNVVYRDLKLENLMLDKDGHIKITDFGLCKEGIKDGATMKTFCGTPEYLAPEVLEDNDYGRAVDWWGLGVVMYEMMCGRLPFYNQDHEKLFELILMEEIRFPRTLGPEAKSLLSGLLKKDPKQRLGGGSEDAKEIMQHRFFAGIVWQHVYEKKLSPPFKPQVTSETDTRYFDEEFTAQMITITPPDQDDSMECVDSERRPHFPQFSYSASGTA

Met(Y1248C)(h) = Met(Y1248C)(h) (Homo sapiens (Human), UniProt P08581, Y1248C); test: KinaseProfiler kinase panel; type: biochemical
Arg(m) = Arg(m) (Mus musculus (Mouse), UniProt Q4JIM5); test: KinaseProfiler kinase panel; type: biochemical
ROCK-II(h) = ROCK-II(h) (Homo sapiens (Human), UniProt O75116); test: KinaseProfiler kinase panel; type: biochemical
SAPK4(h) = SAPK4(h) (Homo sapiens (Human), UniProt O15264); test: KinaseProfiler kinase panel; type: biochemical
GSK3β(h) = GSK3β(h) (Homo sapiens (Human), UniProt P49841); test: KinaseProfiler kinase panel; type: biochemical
PAK4(h) = PAK4(h) (Homo sapiens (Human), UniProt O96013); test: KinaseProfiler kinase panel; type: biochemical
SGK(h) = SGK(h) (Homo sapiens (Human), UniProt O00141); test: KinaseProfiler kinase panel; type: biochemical
Chain of SGK(h) (O00141 whole entry): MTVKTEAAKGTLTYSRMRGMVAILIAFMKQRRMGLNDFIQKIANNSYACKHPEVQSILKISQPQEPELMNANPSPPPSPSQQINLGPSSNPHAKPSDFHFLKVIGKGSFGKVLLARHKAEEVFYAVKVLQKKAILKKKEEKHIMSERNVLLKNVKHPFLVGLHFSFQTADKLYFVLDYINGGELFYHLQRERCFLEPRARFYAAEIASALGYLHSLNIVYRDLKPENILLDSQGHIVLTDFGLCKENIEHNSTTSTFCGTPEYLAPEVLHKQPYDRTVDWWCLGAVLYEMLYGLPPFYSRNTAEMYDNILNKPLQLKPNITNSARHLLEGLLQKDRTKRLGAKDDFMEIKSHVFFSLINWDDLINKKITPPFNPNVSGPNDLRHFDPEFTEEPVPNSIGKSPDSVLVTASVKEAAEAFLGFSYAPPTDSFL

CDK2/cyclinE(h) = CDK2/cyclinE(h) (Homo sapiens (Human), UniProt P24941); test: KinaseProfiler kinase panel; type: biochemical
Tie2(Y897S)(h) = Tie2(Y897S)(h) (Homo sapiens (Human), UniProt Q02763, Y897S); test: KinaseProfiler kinase panel; type: biochemical
Ret(h) = Ret(h) (Homo sapiens (Human), UniProt P07949); test: KinaseProfiler kinase panel; type: biochemical
ALK(h) = ALK(h) (Homo sapiens (Human), UniProt Q9UM73); test: KinaseProfiler kinase panel; type: biochemical
CDK2/cyclin A = CDK2/cyclin A (Homo sapiens (Human), UniProt P24941); details: tested at 1 μM; cited from earlier work

Chain of PAK2(h) (Q13177 whole entry): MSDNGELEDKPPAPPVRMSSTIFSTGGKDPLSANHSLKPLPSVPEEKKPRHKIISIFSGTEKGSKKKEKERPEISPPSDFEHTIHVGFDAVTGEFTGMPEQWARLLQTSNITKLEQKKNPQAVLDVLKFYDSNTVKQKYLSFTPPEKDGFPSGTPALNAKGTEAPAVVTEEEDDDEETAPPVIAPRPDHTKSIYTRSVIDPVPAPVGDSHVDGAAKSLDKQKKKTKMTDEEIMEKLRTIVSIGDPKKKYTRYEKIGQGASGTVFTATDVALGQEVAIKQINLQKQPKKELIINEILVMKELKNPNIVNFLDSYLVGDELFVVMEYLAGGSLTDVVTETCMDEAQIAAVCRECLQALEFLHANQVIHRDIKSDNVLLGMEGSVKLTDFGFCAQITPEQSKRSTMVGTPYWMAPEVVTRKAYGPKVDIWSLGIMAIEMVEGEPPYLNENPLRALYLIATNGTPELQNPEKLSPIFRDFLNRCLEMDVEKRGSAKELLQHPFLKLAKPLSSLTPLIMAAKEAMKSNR

CCn1c(N2CCNCC2)nc2c(Br)c(Br)c(Br)c(Br)c21 [Compound 416, 4,5,6,7-tetrabromo-1-ethyl-2-(piperazin-1-yl)-1H-benzo[d]imidazole]
remaining activity at 1 µM (Tie2(R849W)(h)): 101% | remaining activity at 1 µM (PrKX(h)): 74% | remaining activity at 1 µM (p70S6K(h)): 56% | remaining activity at 1 µM (PAK2(h)): 95% | remaining activity at 1 µM (PRAK(h)): 91% | remaining activity at 1 µM (WNK2(h)): 102% | remaining activity at 1 µM (ZAP-70(h)): 108% | remaining activity at 1 µM (PKCζ(h)): 107% | remaining activity at 1 µM (EGFR(L858R)(h)): 22% | remaining activity at 1 µM (ASK1(h)): 100% | remaining activity at 1 µM (PKD2(h)): 58% | remaining activity at 1 µM (EphA5(h)): 99% | remaining activity at 1 µM (Lyn(h)): 65% | remaining activity at 1 µM (ROCK-I(h)): 90% | remaining activity at 1 µM (PKCβII(h)): 98% | remaining activity at 1 µM (MINK(h)): 87% | remaining activity at 1 µM (c-RAF(h)): 85% | remaining activity at 1 µM (RIPK2(h)): 79% | remaining activity at 1 µM (HIPK2(h)): 1% | remaining activity at 1 µM (DCAMKL2(h)): 101% | remaining activity at 1 µM (ErbB4(h)): 89% | remaining activity at 1 µM (MKK4(m)): 100% | remaining activity at 1 µM (TAO1(h)): 6% | remaining activity at 1 µM (Plk1(h)): 117% | remaining activity at 1 µM (MST3(h)): 93% | remaining activity at 1 µM (Met(D1246H)(h)): 72% | remaining activity at 1 µM (PKBα(h)): 59% | remaining activity at 1 µM (Met(Y1248C)(h)): 73% | remaining activity at 1 µM (Arg(m)): 96% | remaining activity at 1 µM (ROCK-II(h)): 81% | remaining activity at 1 µM (SAPK4(h)): 51% | remaining activity at 1 µM (GSK3β(h)): 66% | remaining activity at 1 µM (PAK4(h)): 79% | remaining activity at 1 µM (SGK(h)): 90% | remaining activity at 1 µM (CDK2/cyclinE(h)): 6% | remaining activity at 1 µM (Tie2(Y897S)(h)): 91% | remaining activity at 1 µM (Ret(h)): 27% | remaining activity at 1 µM (ALK(h)): 106%

CN(C)c1nc2c(Br)c(Br)c(Br)c(Br)c2[nH]1 [DMAT, 2-dimethylamino-4,5,6,7-tetrabromo-1H-benzimidazole, reference compound]
inhibition of CDK2/cyclin A activity (CDK2/cyclin A): do not inhibit

Reference: patent US8604217B2, “Compound, a process for its preparation, a pharmaceutical composition, use of a compound, a method for modulating or regulating serine/threonine kinases and a serine/threonine kinases modulating agent” (Selvita S.A., priority 2009, dated 2013)
